The compounds below were run on C3H10T1/2 cells (assay: C3H assay: differentiation of C3H10T1/2 cells by mSHH, measurement of alkaline phosphatase). Settings: Mus musculus, C3H 10T1/2; C3H10T1/2 cells stimulated with mSHH for 72 hours; alkaline phosphatase activity; read-out: IC50 Ranges.
Format: cell-based, mouse

Q: With `COC(=O)c1cnc2[nH]cc(C3CCN(S(=O)(=O)C4CCN(C(=O)OC(C)(C)C)CC4)CC3)c2c1` [Compound 16, methyl 3-[1-[1-[(2-methylpropan-2-yl)oxycarbonyl]piperidin-4-yl]sulfonylpiper-idin-4-yl]-1H-pyrrolo[2,3-b]pyridine-5-carboxylate] as the compound, how does the IC50 read?
A: 100 to 1000 nM

Q: For `CC1(C)COCC(C)(C)N1C(=O)N1CC(S(=O)(=O)N2CCC(c3cnc4occc4c3)CC2)C1` [Compound 34, [3-(4-furo[2,3-b]pyridin-5-ylpiperidin-1-yl)sulfonylaze-tidin-1-yl]-(3,3,5,5-tetramethylmor-pholin-4-yl)methanone], which IC50 is on record?
A: 10 to 100 nM

Q: Which IC50 does the source give for `O=C(CC(O)(C(F)(F)F)C(F)(F)F)N1CC(S(=O)(=O)N2CCC(c3c[nH]c4cccnc34)CC2)C1` [Compound 379, 4,4,4-trifluoro-3-hydroxy-1-[3-[4-(1H-pyrrolo[3,2-b]pyridin-3-yl)piperidin-1-yl]sulfonylaze-tidin-1-yl]-3-(trifluoromethyl) butan-1-one] here?
A: 10 to 100 nM

Q: How did the IC50 turn out when `Cc1ccc2c(C3CCN(S(=O)(=O)C4CN(C(=O)OC5CCOCC5)C4)CC3)c[nH]c2n1` [Compound 380, oxan-4-yl 3-[4-(6-methyl-1H-pyrrolo[2,3-b]pyridin-3-yl)piperidin-1-yl]sulfonylaze-tidine-1-carboxylate] was run?
A: < 10 nM

Q: `Cc1ccc2c(C3CCN(S(=O)(=O)C4CN(C(=O)N5C[C@@H](C)O[C@@H](C)C5)C4)CC3)c[nH]c2n1` [Compound 381, [cis-2,6-dimethylmorpholin-4-yl]-[3-[4-(6-methyl-1H-pyrrolo[2,3-b]pyridin-3-yl)piperidin-1-yl]sulfonylazetidin-1-yl]methanone] was tested. Which IC50 did it give?
A: < 10 nM

Q: With `Cc1cccc(C)c1NC(=O)N1CC(S(=O)(=O)N2CCC(c3coc4cccnc34)CC2)C1` [Compound 382, N-(2,6-dimethylphenyl)-3-(4-furo[3,2-b]pyridin-3-ylpiperidin-1-yl)sulfonylaze-tidine-1-carboxamide] as the compound, how does the IC50 read?
A: 10 to 100 nM

Q: How did the IC50 turn out when `O=C(Nc1cccc(F)c1)N1CC(S(=O)(=O)N2CCC(c3coc4cccnc34)CC2)C1` [Compound 383, N-(3-fluorophenyl)-3-(4-furo[3,2-b]pyridin-3-ylpiperidin-1-yl)sulfonylaze-tidine-1-carboxamide] was run?
A: 10 to 100 nM

Q: `O=C(Nc1cc(F)ccc1Cl)N1CC(S(=O)(=O)N2CCC(c3coc4cccnc34)CC2)C1` [Compound 384, N-(2-chloro-5-fluorophenyl)-3-(4-furo[3,2-b]pyridin-3-ylpiperidin-1-yl)sulfonylaze-tidine-1-carboxamide] was tested. Which IC50 did it give?
A: 10 to 100 nM

Q: `O=C(Nc1cc(F)ccc1Cl)N1CC(S(=O)(=O)N2CCC(c3c[nH]c4ncccc34)CC2)C1` [Compound 385, N-(2-chloro-5-fluorophenyl)-3-[4-(1H-pyrrolo[2,3-b]pyridin-3-yl)piperidin-1-yl]sulfonylaze-tidine-1-carboxamide] was tested. Which IC50 did it give?
A: 10 to 100 nM

Q: With `Cc1noc(C)c1CC(=O)N1CC(S(=O)(=O)N2CCC(c3ccc(Cl)cc3)CC2)C1` [Compound 386, 1-[3-[4-(4-chlorophenyl)piperidin-1-yl]sulfonylaze-tidin-1-yl]-2-(3,5-dimethyl-1,2-oxazol-4-yl)ethanone] as the compound, how does the IC50 read?
A: 10 to 100 nM

Q: Which IC50 does the source give for `Cc1cccc(F)c1NC(=O)N1CC(S(=O)(=O)N2CCC(c3c[nH]c4ncccc34)CC2)C1` [Compound 387, N-(2-fluoro-6-methylphenyl)-3-[4-(1H-pyrrolo[2,3-b]pyridin-3-yl)piperidin-1-yl]sulfonylaze-tidine-1-carboxamide] here?
A: 10 to 100 nM

Q: `O=C(Nc1cccc(F)c1)N1CC(S(=O)(=O)N2CCC(c3c[nH]c4ncccc34)CC2)C1` [Compound 389, N-(3-fluorophenyl)-3-[4-(1H-pyrrolo[2,3-b]pyridin-3-yl)piperidin-1-yl]sulfonylaze-tidine-1-carboxamide] was tested. Which IC50 did it give?
A: 10 to 100 nM

Q: For `O=C(Nc1c(F)cccc1F)N1CC(S(=O)(=O)N2CCC(c3c[nH]c4ncccc34)CC2)C1` [Compound 390, N-(2,6-difluorophenyl)-3-[4-(1H-pyrrolo[2,3-b]pyridin-3-yl)piperidin-1-yl]sulfonylaze-tidine-1-carboxamide], which IC50 is on record?
A: 10 to 100 nM

Q: How did the IC50 turn out when `Cc1cccc(C)c1NC(=O)N1CC(S(=O)(=O)N2CCC(c3c[nH]c4ncccc34)CC2)C1` [Compound 391, N-(2,6-dimethylphenyl)-3-[4-(1H-pyrrolo[2,3-b]pyridin-3-yl)piperidin-1-yl]sulfonylaze-tidine-1-carboxamide] was run?
A: 10 to 100 nM

Q: With `Cc1cc(F)ccc1NC(=O)N1CC(S(=O)(=O)N2CCC(c3coc4cccnc34)CC2)C1` [Compound 392, N-(4-fluoro-2-methylphenyl)-3-(4-furo[3,2-b]pyridin-3-ylpiperidin-1-yl)sulfonylaze-tidine-1-carboxamide] as the compound, how does the IC50 read?
A: 10 to 100 nM

Q: `C[C@@H]1CN(C(=O)N2CC(S(=O)(=O)N3CCC(c4ccc(Cl)cc4)CC3)C2)C[C@H](C)O1` [Compound 393, [3-[4-(4-chlorophenyl)piperidin-1-yl]sulfonylaze-tidin-1-yl]-[(2R,6S)-2,6-dimethylmorpholin-4-yl]methanone] was tested. Which IC50 did it give?
A: 10 to 100 nM

Q: With `Cc1cc(F)ccc1NC(=O)N1CC(S(=O)(=O)N2CCC(c3c[nH]c4ncccc34)CC2)C1` [Compound 394, N-(4-fluoro-2-methylphenyl)-3-[4-(1H-pyrrolo[2,3-b]pyridin-3-yl)piperidin-1-yl]sulfonylazet idine-1-carboxamide] as the compound, how does the IC50 read?
A: 10 to 100 nM

Q: How did the IC50 turn out when `CC(C)(O)CC(=O)N1CC(S(=O)(=O)N2CCC(c3coc4cccnc34)CC2)C1` [Compound 398, 1-[3-(4-furo[3,2-b]pyridin-3-ylpiperidin-1-yl)sulfonylaze-tidin-1-yl]-3-hydroxy-3-methylbutan-1-one] was run?
A: 100 to 1000 nM

Q: `Cc1cc(F)ccc1N(C)C(=O)N1CC(S(=O)(=O)N2CCC(c3coc4cccnc34)CC2)C1` [Compound 399, N-(4-fluoro-2-methyl-phenyl)-3-[(4-furo[3,2-b]pyridin-3-yl-1-piperidyl)sulfonyl]-N-methyl-azetidine-1-carboxamide] was tested. Which IC50 did it give?
A: 100 to 1000 nM

Q: With `Cc1ccc(F)cc1NC(=O)N1CC(S(=O)(=O)N2CCC(c3ccc(Cl)cc3)CC2)C1` [Compound 400, 3-[4-(4-chlorophenyl)piperidin-1-yl]sulfonyl-N-(5-fluoro-2-methylphenyl) azetidine-1-carboxamide] as the compound, how does the IC50 read?
A: 100 to 1000 nM

Q: Which IC50 does the source give for `O=C(N1CCOCC1)N1CC(S(=O)(=O)N2CCC(c3ccc(Cl)cc3)CC2)C1` [Compound 402, [3-[4-(4-chlorophenyl)piperidin-1-yl]sulfonylaze-tidin-1-yl]-morpholin-4-ylmethanone] here?
A: 100 to 1000 nM

Q: Which IC50 does the source give for `O=C(Nc1c(F)cccc1F)N1CC(S(=O)(=O)N2CCC(c3coc4cccnc34)CC2)C1` [Compound 403, N-(2,6-difluorophenyl)-3-(4-furo[3,2-b]pyridin-3-ylpiperidin-1-yl)sulfonylaze-tidine-1-carboxamide] here?
A: 10 to 100 nM

Q: For `CC(C)(C(=O)N1CC(S(=O)(=O)N2CCC(c3coc4cccnc34)CC2)C1)C(F)(F)F` [Compound 404, 3,3,3-trifluoro-1-[3-(4-furo[3,2-b]pyridin-3-ylpiperidin-1-yl)sulfonylaze-tidin-1-yl]-2,2-dimethylpropan-1-one], which IC50 is on record?
A: 10 to 100 nM

Q: How did the IC50 turn out when `C[C@](O)(CC(=O)N1CC(S(=O)(=O)N2CCC(c3c[nH]c4ncccc34)CC2)C1)C(F)(F)F` [Compound 405, 4,4,4-trifluoro-3-hydroxy-3-methyl-1-[3-[4-(1H-pyrrolo[2,3-b]pyridin-3-yl)piperidin-1-yl]sulfonylaze-tidin-1-yl]butan-1-one] was run?
A: 10 to 100 nM

Q: Which IC50 does the source give for `C[C@](O)(CC(=O)N1CC(S(=O)(=O)N2CCC(c3coc4cccnc34)CC2)C1)C(F)(F)F` [Compound 406, 4,4,4-trifluoro-1-[3-(4-furo[3,2-b]pyridin-3-ylpiperidin-1-yl)sulfonylaze-tidin-1-yl]-3-hydroxy-3-methylbutan-1-one] here?
A: 10 to 100 nM

Q: Which IC50 does the source give for `CN1CCC[C@H]1C(=O)N1CC(S(=O)(=O)N2CCC(c3coc4cccnc34)CC2)C1` [Compound 407, [3-(4-furo[3,2-b]pyridin-3-ylpiperidin-1-yl)sulfonylazetidin-1-yl]-[(2S)-methylpyrroli-din-2-yl]methanone] here?
A: 100 to 1000 nM

Q: For `CC(C)CC(=O)N1CC(S(=O)(=O)N2CCC(c3coc4cccnc34)CC2)C1` [Compound 408, 1-[3-(4-furo[3,2-b]pyridin-3-ylpiperidin-1-yl)sulfonylazetidin-1-yl]-3-methylbutan-1-one], which IC50 is on record?
A: 100 to 1000 nM

Q: `Cc1ccccc1C1CCN(S(=O)(=O)C2CN(C(=O)OC(C)(C)C)C2)CC1` [Compound 409, tert-butyl 3-[4-(2-methylphenyl)piperidin-1-yl]sulfonylaze-tidine-1-carboxylate] was tested. Which IC50 did it give?
A: 1000 to 10000 nM

Q: With `CC1(C)COCN1C(=O)N1CC(S(=O)(=O)N2CCC(c3ccc(Cl)cc3)CC2)C1` [Compound 411, [3-[4-(4-chlorophenyl)piperidin-1-yl]-sulfonylaze-tidin-1-yl]-(4,4-dimethyl-1,3-oxazolidin-3-yl)-methanone] as the compound, how does the IC50 read?
A: 10 to 100 nM

Same assay, conditions: Mus musculus, C3H 10T1/2; reference compounds run in the C3H assay; read-out: mean IC50

Q: `Cc1c(C(=O)Nc2ccc(N3C[C@@H](C)O[C@@H](C)C3)nc2)cccc1-c1ccc(OC(F)(F)F)cc1` [Sonidegib, reference compound] was tested. Which IC50 did it give?
A: 11 nM

These compounds were tested against T1, SMO (Homo sapiens, UniProt Q99835) (assay: Smoothened (SMO) binding fluorescence polarisation assay (BODIPY-cyclopamine competition)). Settings: SMO binding FP assay versus C3H10T1/2 cellular assay.
T1 construct: expressed in transfected cells; host or cells: HEK293
T1 sequence (Q99835 28-787): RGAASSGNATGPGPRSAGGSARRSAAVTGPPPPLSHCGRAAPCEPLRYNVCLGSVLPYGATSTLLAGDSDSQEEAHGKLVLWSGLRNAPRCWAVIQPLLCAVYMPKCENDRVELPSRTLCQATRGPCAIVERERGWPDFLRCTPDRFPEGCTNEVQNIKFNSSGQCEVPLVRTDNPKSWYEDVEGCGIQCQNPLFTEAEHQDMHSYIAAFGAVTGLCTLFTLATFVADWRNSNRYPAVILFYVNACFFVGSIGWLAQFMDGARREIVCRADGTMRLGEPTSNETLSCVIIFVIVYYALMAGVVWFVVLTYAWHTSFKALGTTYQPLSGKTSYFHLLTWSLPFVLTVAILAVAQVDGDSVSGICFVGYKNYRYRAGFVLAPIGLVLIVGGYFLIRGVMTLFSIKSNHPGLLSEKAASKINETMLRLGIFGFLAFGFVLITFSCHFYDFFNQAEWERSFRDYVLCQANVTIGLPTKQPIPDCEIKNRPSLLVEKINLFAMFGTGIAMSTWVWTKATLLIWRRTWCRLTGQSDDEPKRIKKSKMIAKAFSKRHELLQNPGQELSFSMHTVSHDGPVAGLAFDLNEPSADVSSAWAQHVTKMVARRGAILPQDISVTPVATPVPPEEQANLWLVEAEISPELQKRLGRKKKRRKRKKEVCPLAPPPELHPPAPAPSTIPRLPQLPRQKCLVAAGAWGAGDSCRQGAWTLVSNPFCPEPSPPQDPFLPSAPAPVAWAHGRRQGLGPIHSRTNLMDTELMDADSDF
Procedure: Standard Protocol for Smoothened (SMO) Binding Fluorescence Polarisation Assay.
The assay measures the ability of the test compounds to compete with a fluorescently-labelled version of the known ligand, cyclopamine, for binding to SMO. The fluorescent tag used is BODIPY (boron dipyrromethene).
An aliquot of a membrane preparation from a SMO-over-expressing HEK293 cell line is diluted to protein concentration of 0.117 mg/ml in assay buffer (25 mM HEPES, 2 mM EDTA, 0.05% γ-globulin, 0.01% pluronic acid pH7.4, plus protease Inhibitor cocktail). 8.5 μl of the membrane suspension is added to each well of a black, low volume 384 well microtitre plate.
Test compounds are added in a seven point dilution range to the wells containing the membrane preparation. The final DMSO solvent concentration in the wells is maintained at 0.3%. 6.5 μl of a 6.9 nM BODIPY-cyclopamine solution is added to each of the wells (final assay concentration 3 nM).
The plate is sealed and stored in the dark at room temperature for 24 hours prior to measurement of the fluorescence polarisation signal on a Perkin Elmer Envision multi-label reader.
Table 4 below details the ratio of SMO binding compared to the potency in the C3H10T1/2 cellular assay. The small ratio between SMO binding and potency for vismodegib is considered to be reflective of the fact vismodegib acts mainly through inhibition of the SMO protein. The larger ratios for the compound of the invention are considered to be reflective of alternate actions outside of direct SMO inhibition.

Q: For `COC(=O)c1cnc2[nH]cc(C3CCN(S(=O)(=O)C4CCN(C(=O)OC(C)(C)C)CC4)CC3)c2c1` [Compound 16, methyl 3-[1-[1-[(2-methylpropan-2-yl)oxycarbonyl]piperidin-4-yl]sulfonylpiper-idin-4-yl]-1H-pyrrolo[2,3-b]pyridine-5-carboxylate], which “Ratio of potency in SMO binding assay to potency in C3H10T1/2 cellular assay” value is on record?
A: >78

Q: How did the “Ratio of potency in SMO binding assay to potency in C3H10T1/2 cellular assay” value turn out when `CC1(C)COCC(C)(C)N1C(=O)N1CC(S(=O)(=O)N2CCC(c3cnc4occc4c3)CC2)C1` [Compound 34, [3-(4-furo[2,3-b]pyridin-5-ylpiperidin-1-yl)sulfonylaze-tidin-1-yl]-(3,3,5,5-tetramethylmor-pholin-4-yl)methanone] was run?
A: 21

Reference: patent publication US10961238B2, “Modulators of hedgehog (Hh) signaling pathway” (E-THERAPEUTICS PLC, priority 2016, dated 2021)
